Earlier results, collected in patent US7435725B2, “Oral compositions and methods for prevention, reduction and treatment of radiation injury” (The Quigly Corporation, priority 2001, dated 2008).

Columns and labels:
[1] = system: Salmonella Typhimurium TA98 and TA 1538; conditions: Trp-P-2 (3-amino-1-methyl-5H-pyrido(4,3-b)indole)

SMILES | reduction of mutations due to γ-radiation (E. coli B/r WP2 trp-) | reduction of mutation rate induced by Trp-P-2 [1]
O=C(O)C[CH2][Ge](=[O])[O][Ge](=[O])[CH2]CC(=O)O [Ge-132] | twenty-fold | –
[Ge+4].[O-2].[O-2] [Germanium oxide] | – | 40-67 folds
